Reference: patent US8802597B2, “Herbicidal pyrimidines” (E I du Pont de Nemours and Company, priority 2003, dated 2014)
Read-outs that look alike come from different tables or passages of the source.

What was measured:
Type in all cases: in vivo
[1] = system: barnyardgrass (Echinochloa crus-galli); assay: Test B flooded paddy test; details: Echinochloa crus-galli, Flood, 1000 g ai/ha; scale 0 (no effect) to 100 (complete control); read-out: Plant response rating, Barnyardgrass
How it was run: (§1)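 Visual injury scoring (0 = no effect, 100 = complete control) versus controls made 13 to 15 days after treatment in the greenhouse. Test species were grown in flooded paddy to the 2-leaf stage: rice, barnyardgrass, umbrella sedge, duck salad.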

[2] = system: rice (Oryza sativa); assay: Test B flooded paddy test; details: Oryza sativa, Flood, 1000 g ai/ha; scale 0 to 100; read-out: Plant response rating, Rice
How it was run: as §1

[3] = system: umbrella sedge (Cyperus difformis); assay: Test B flooded paddy test; details: Cyperus difformis, Flood, 1000 g ai/ha; scale 0 to 100; read-out: Plant response rating, Sedge, Umbrella
How it was run: as §1

[4] = system: duck salad (Heteranthera limosa); assay: Test B flooded paddy test; details: Heteranthera limosa, Flood, 1000 g ai/ha; scale 0 to 100; read-out: Plant response rating, Ducksalad
How it was run: as §1

[5] = system: wheat (Triticum aestivum); assay: Test B pre/postemergence; details: Triticum aestivum; for plant injury at 62 g/ha: 62 g ai/ha; for plant injury at 250 g/ha: 250 g ai/ha
How it was run: (§2)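 Visual rating, 0 (no effect) to 100 (complete control) versus controls, taken 13–15 days after treatment in greenhouse. Compounds formulated in non-phytotoxic solvent plus surfactant; pre: sprayed after seeding; post: plants at 1- to 4-leaf stage, 2–18 cm.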

[6] = system: velvetleaf (Abutilon theophrasti); assay: Test B pre/postemergence; details: Abutilon theophrasti; for pest or weed control at 62 g/ha: 62 g ai/ha; for pest or weed control at 250 g/ha: 250 g ai/ha
How it was run: as §2

[7] = system: lambsquarters (Chenopodium album); assay: Test B pre/postemergence; details: Chenopodium album; for pest or weed control at 62 g/ha: 62 g ai/ha; for pest or weed control at 250 g/ha: 250 g ai/ha
How it was run: as §2

[8] = system: Surinam grass (Brachiaria decumbens); assay: Test B pre/postemergence; details: Urochloa decumbens; for pest or weed control at 62 g/ha: 62 g ai/ha; for pest or weed control at 250 g/ha: 250 g ai/ha
How it was run: as §2

[9] = system: pigweed (Amaranthus retroflexus); assay: Test B pre/postemergence; details: Amaranthus retroflexus; for pest or weed control at 62 g/ha: 62 g ai/ha; for pest or weed control at 250 g/ha: 250 g ai/ha
How it was run: as §2

[10] = system: giant foxtail (Setaria faberii); assay: Test B pre/postemergence; details: Setaria faberi; for pest or weed control at 62 g/ha: 62 g ai/ha; for pest or weed control at 250 g/ha: 250 g ai/ha
How it was run: as §2

[11] = system: corn (Zea mays); assay: Test B pre/postemergence; details: Zea mays; for Corn plant response rating (crop injury, 0 = no effect, 100 = complete kill) at 250 g/ha: 250 g ai/ha
How it was run: as §2

[12] = system: crabgrass (Digitaria sanguinalis); assay: Test B pre/postemergence; details: Digitaria sanguinalis; for pest or weed control at 62 g/ha: 62 g ai/ha; for pest or weed control at 250 g/ha: 250 g ai/ha
How it was run: as §2

[13] = system: morningglory (Ipomoea coccinea); assay: Test B pre/postemergence; details: Ipomoea; for pest or weed control at 62 g/ha: 62 g ai/ha; for pest or weed control at 250 g/ha: 250 g ai/ha
How it was run: as §2

[14] = system: barnyardgrass (Echinochloa crus-galli); assay: Test B pre/postemergence; details: Echinochloa crus-galli; for pest or weed control at 62 g/ha: 62 g ai/ha; for pest or weed control at 250 g/ha: 250 g ai/ha
How it was run: as §2

[15] = system: cocklebur (Xanthium strumarium); assay: Test B pre/postemergence; details: Xanthium strumarium; for pest or weed control at 62 g/ha: 62 g ai/ha; for pest or weed control at 250 g/ha: 250 g ai/ha
How it was run: as §2

[16] = system: blackgrass (Alopecurus myosuroides); assay: Test B postemergence; details: Alopecurus myosuroides, post-emergence
How it was run: as §2

[17] = system: wild oat (Avena fatua); assay: Test B postemergence; details: Avena fatua, post-emergence
How it was run: as §2

[18] = pre-emergence, Preemergence, scale 0 to 100 (0 no effect, 100 complete control), read-out: Plant response rating, Wheat
[19] = pre-emergence, Preemergence, scale 0 to 100 (0 no effect, 100 complete control), read-out: Plant response rating, Barnyardgrass

CCOC(=O)c1nc(C2CC2)nc(N)c1Br [Compound 1, ethyl 6-amino-5-bromo-2-cyclopropyl-4-pyrimidinecarboxylate]
40%: pest or weed control at 62 g/ha ([16]; 62 g ai/ha, scale 0 to 100 (0 no effect, 100 complete control), read-out: Blackgrass plant response rating)
20%: pest or weed control at 1000 g/ha [3] | Corn plant response rating (crop injury, 0 = no effect, 100 = complete kill) at 62 g/ha ([11]; pre-emergence, Preemergence, 62 g ai/ha, scale 0 to 100, 0 no effect, 100 complete control) | pest or weed control at 62 g/ha ([17]; 62 g ai/ha, scale 0 to 100 (0 no effect, 100 complete control), read-out: Oat, Wild plant response rating)
30%: plant injury at 62 g/ha ([5]; post-emergence, Postemergence, scale 0 to 100 (0 no effect, 100 complete control), read-out: Wheat plant response rating) | plant injury at 62 g/ha [5, 18] | pest or weed control at 62 g/ha ([10]; pre-emergence, Preemergence, scale 0 to 100, 0 no effect, 100 complete control, read-out: Plant response rating, Foxtail, Giant) | plant injury at 62 g/ha ([11]; post-emergence, Postemergence, 62 g ai/ha, scale 0 to 100 (0 no effect, 100 complete control), read-out: Corn plant response rating)
60%: plant injury at 250 g/ha [5, 18] | pest or weed control at 62 g/ha ([8]; post-emergence, Postemergence, scale 0 to 100 (0 no effect, 100 complete control), read-out: Surinam Grass plant response rating) | pest or weed control at 62 g/ha [14, 19] | pest or weed control at 250 g/ha ([17]; 250 g ai/ha, scale 0 to 100, read-out: Plant response rating, Oat, Wild)
100%: pest or weed control at 250 g/ha ([6]; pre-emergence, Preemergence, scale 0 to 100 (0 no effect, 100 complete control), read-out: Plant response rating, Velvetleaf) | pest or weed control at 62 g/ha ([7]; post-emergence, Postemergence, scale 0 to 100 (0 no effect, 100 complete control), read-out: Lambsquarters plant response rating) | pest or weed control at 250 g/ha ([7]; post-emergence, Postemergence, scale 0 to 100, read-out: Plant response rating, Lambsquarters) | pest or weed control at 62 g/ha ([7]; pre-emergence, Preemergence, scale 0 to 100, 0 no effect, 100 complete control, read-out: Plant response rating, Lambsquarters) | pest or weed control at 250 g/ha ([7]; pre-emergence, Preemergence, scale 0 to 100 (0 no effect, 100 complete control), read-out: Plant response rating, Lambsquarters) | pest or weed control at 250 g/ha ([9]; post-emergence, Postemergence, scale 0 to 100, read-out: Plant response rating, Pigweed) | pest or weed control at 250 g/ha ([9]; pre-emergence, Preemergence, scale 0 to 100 (0 no effect, 100 complete control), read-out: Plant response rating, Pigweed) | pest or weed control at 250 g/ha ([13]; post-emergence, Postemergence, scale 0 to 100, read-out: Plant response rating, Morningglory) | pest or weed control at 250 g/ha ([13]; pre-emergence, Preemergence, scale 0 to 100 (0 no effect, 100 complete control), read-out: Plant response rating, Morningglory) | pest or weed control at 250 g/ha ([15]; pre-emergence, Preemergence, scale 0 to 100 (0 no effect, 100 complete control), read-out: Plant response rating, Cocklebur)
80%: pest or weed control at 1000 g/ha [1] | pest or weed control at 1000 g/ha [4] | pest or weed control at 250 g/ha ([8]; pre-emergence, Preemergence, scale 0 to 100 (0 no effect, 100 complete control), read-out: Plant response rating, Surinam Grass) | pest or weed control at 250 g/ha ([10]; post-emergence, Postemergence, scale 0 to 100, read-out: Plant response rating, Foxtail, Giant) | Corn plant response rating (crop injury, 0 = no effect, 100 = complete kill) at 250 g/ha ([11]; pre-emergence, Preemergence, scale 0 to 100 (0 no effect, 100 complete control))
50%: pest or weed control at 62 g/ha ([8]; pre-emergence, Preemergence, scale 0 to 100, 0 no effect, 100 complete control, read-out: Plant response rating, Surinam Grass) | pest or weed control at 62 g/ha ([10]; post-emergence, Postemergence, scale 0 to 100 (0 no effect, 100 complete control), read-out: Foxtail, Giant plant response rating) | pest or weed control at 62 g/ha ([14]; post-emergence, Postemergence, scale 0 to 100 (0 no effect, 100 complete control), read-out: Barnyardgrass plant response rating)
90%: pest or weed control at 62 g/ha ([6]; post-emergence, Postemergence, scale 0 to 100 (0 no effect, 100 complete control), read-out: Velvetleaf plant response rating) | pest or weed control at 250 g/ha ([6]; post-emergence, Postemergence, scale 0 to 100, read-out: Plant response rating, Velvetleaf) | pest or weed control at 62 g/ha ([6]; pre-emergence, Preemergence, scale 0 to 100, 0 no effect, 100 complete control, read-out: Plant response rating, Velvetleaf) | pest or weed control at 250 g/ha ([8]; post-emergence, Postemergence, scale 0 to 100, read-out: Plant response rating, Surinam Grass) | pest or weed control at 62 g/ha ([9]; post-emergence, Postemergence, scale 0 to 100 (0 no effect, 100 complete control), read-out: Pigweed plant response rating) | pest or weed control at 62 g/ha ([9]; pre-emergence, Preemergence, scale 0 to 100, 0 no effect, 100 complete control, read-out: Plant response rating, Pigweed) | pest or weed control at 250 g/ha ([10]; pre-emergence, Preemergence, scale 0 to 100 (0 no effect, 100 complete control), read-out: Plant response rating, Foxtail, Giant) | pest or weed control at 250 g/ha ([12]; post-emergence, Postemergence, scale 0 to 100, read-out: Plant response rating, Crabgrass) | pest or weed control at 62 g/ha ([12]; pre-emergence, Preemergence, scale 0 to 100, 0 no effect, 100 complete control, read-out: Plant response rating, Crabgrass) | pest or weed control at 250 g/ha ([12]; pre-emergence, Preemergence, scale 0 to 100 (0 no effect, 100 complete control), read-out: Plant response rating, Crabgrass) | pest or weed control at 62 g/ha ([13]; post-emergence, Postemergence, scale 0 to 100 (0 no effect, 100 complete control), read-out: Morningglory plant response rating) | pest or weed control at 62 g/ha ([13]; pre-emergence, Preemergence, scale 0 to 100, 0 no effect, 100 complete control, read-out: Plant response rating, Morningglory) | pest or weed control at 250 g/ha ([14]; post-emergence, Postemergence, scale 0 to 100, read-out: Plant response rating, Barnyardgrass) | pest or weed control at 250 g/ha [14, 19] | pest or weed control at 62 g/ha ([15]; post-emergence, Postemergence, scale 0 to 100 (0 no effect, 100 complete control), read-out: Cocklebur plant response rating) | pest or weed control at 250 g/ha ([15]; post-emergence, Postemergence, scale 0 to 100, read-out: Plant response rating, Cocklebur) | pest or weed control at 62 g/ha ([15]; pre-emergence, Preemergence, scale 0 to 100, 0 no effect, 100 complete control, read-out: Plant response rating, Cocklebur)
70%: plant injury at 1000 g/ha [2] | plant injury at 250 g/ha ([5]; post-emergence, Postemergence, scale 0 to 100, read-out: Plant response rating, Wheat) | Corn plant response rating (crop injury, 0 = no effect, 100 = complete kill) at 250 g/ha ([11]; post-emergence, Postemergence, scale 0 to 100) | pest or weed control at 62 g/ha ([12]; post-emergence, Postemergence, scale 0 to 100 (0 no effect, 100 complete control), read-out: Crabgrass plant response rating) | pest or weed control at 250 g/ha ([16]; 250 g ai/ha, scale 0 to 100, read-out: Plant response rating, Blackgrass)
